Test [1] deals with Lactobacillus pentosus strain OL79. The experiment in a line: Minimum inhibitory concentration (MIC) antibiotic susceptibility of strain OL79. Particulars: MIC of antibiotic against strain OL79 versus EFSA cutoff. It counts as cell-based.
Test [2] shares this test system. Particulars: MIC cutoff values for Lactobacillus pentosus strain OL79; cited from earlier work.

Data on four compounds can be found in US20230256039A1, “COMPOSITIONS AND METHODS TO INCREASE PRODUCTION OF HYDROXYTYROSOL” (priority 2022, published 2023).

Take `O=C(N[C@H](CO)[C@H](O)c1ccc([N+](=O)[O-])cc1)C(Cl)Cl` [Chloramphenicol]: in test [1], the Susceptibility result is on record as “sensitive”. Moreover, in test [2], the “EFSA Break Point” value is given as 8 mg/L.
Consider `CC[C@H]1OC(=O)[C@H](C)[C@@H](O[C@H]2C[C@@](C)(OC)[C@@H](O)[C@H](C)O2)[C@H](C)[C@@H](O[C@@H]2O[C@H](C)C[C@H](N(C)C)[C@H]2O)[C@](C)(O)C[C@@H](C)C(=O)[C@H](C)[C@@H](O)[C@]1(C)O` [Erythromycin], for which the Susceptibility entry in test [1] is “sensitive”. The “EFSA Break Point” value in test [2] was 1 mg/L.
As for `CC1(C)S[C@@H]2[C@H](NC(=O)[C@H](N)c3ccccc3)C(=O)N2[C@H]1C(=O)O` [Ampicillin], the Susceptibility result in test [1] is on record as “sensitive”. In addition, the “EFSA Break Point” value in test [2] is listed as 2 mg/L.
Turning to Gentamycin, in test [1], the Susceptibility result was “sensitive”. Moreover, the “EFSA Break Point” value in test [2] was 16 mg/L.
